# Data: PubChem BioAssay (NCI)
#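 Growth conditions: 96-well plates. Treatment: test compound, 48 hours, 5 concentrations. Analysis: linear interpolation between bracketing concentrations; unreached endpoints set to highest concentration. GI50 marks 50% less growth. TGI marks complete inhibition of growth.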
# What was measured:
# Experiment in all cases: growth of human tumour cells (NCI), 48 h
# [1] = system: 786-0 renal
# [2] = system: IGROV1 ovarian
# [3] = system: LOX IMVI melanoma
# [4] = system: NCI-H226 lung
# [5] = system: OVCAR-8 ovarian
# [6] = system: SK-MEL-2 melanoma
# [7] = system: SK-MEL-28 melanoma
# [8] = system: DU-145 prostate
# [9] = system: MDA-MB-231 breast
SMILES,TGI [1] [µM],TGI [2] [µM],TGI [3] [µM],TGI [4] [µM],TGI [5] [µM],TGI [6] [µM],TGI [7] [µM],GI50 [1] [µM],GI50 [8] [µM],TGI [8] [µM],GI50 [2] [µM],GI50 [3] [µM],GI50 [9] [µM],TGI [9] [µM],GI50 [4] [µM],GI50 [5] [µM],GI50 [6] [µM],GI50 [7] [µM]
CC(=O)/C=C/c1ccc(C)cc1,> 100,> 100,> 100,> 100,> 100,> 100,> 100,–,–,–,–,–,–,–,–,–,–,–
COC1=C(Br)C(=O)C2=C(C1=O)C1C3=C(C(=O)C=CC3=O)C2c2ccccc21 (centres undefined),36.1,45.1,26,46.4,> 100,61.2,> 100,14.9,21.4,53.8,9.4,4.91,8.15,66.1,21,24.3,20.6,30.7
C=CCn1cc(C(=O)NC(=O)NCCCCCOC(=O)CCCCCCCCCCC(=O)OCCCCCNC(=O)NC(=O)c2cn(CC=C)c(=O)n(C)c2=O)c(=O)n(C)c1=O,> 100,> 100,> 100,> 100,> 100,> 100,> 100,–,–,–,–,–,–,–,–,–,–,–
Nc1ncnc2c1cnn2Cc1ccc(Cl)cc1,> 100,> 100,> 100,> 100,> 100,> 100,> 100,> 100,–,> 100,> 100,–,–,> 100,–,–,> 100,74.8
OCC(O)C(O)C(O)/C=N/Nc1nc2ccccc2nc1-c1ccccc1 (centres undefined),> 100,> 100,> 100,> 100,> 100,> 100,> 100,> 100,> 100,> 100,57.4,72.2,64.1,> 100,> 100,91.1,> 100,> 100
O=C(/C=C/c1ccccc1Cl)c1ccc(Cl)cc1Cl,31.4,27.6,–,31.5,29.3,–,24.8,–,–,–,–,–,–,–,–,–,–,–
CC(C)c1ccc(NC(=S)NC(=O)c2ccccc2)cc1,46.4,68.4,31.2,–,> 100,35.8,48.3,–,–,70.8,–,–,–,57,–,–,–,–
C1=Nc2ccccc2C=Nc2ccccc2C=Nc2ccccc2C=Nc2ccccc21.[Cl-].[Pt+2],97.1,49.5,> 100,–,> 100,–,64.4,32.2,–,–,18.8,29.9,–,–,–,17.5,–,14.8
Clc1ccc(Nc2ccnc(NCCCNc3ccnc4cc(Cl)ccc34)n2)cc1,3.33,–,–,–,3.62,3.61,3.07,1.73,1.86,3.35,–,–,–,–,–,1.82,1.98,1.64
c1ccc(COC2(OCc3ccccc3)CC3OC2C2NN=NC32)cc1 (centres undefined),34.8,76.3,36.5,39.3,–,> 10,35.4,–,–,–,–,–,–,–,–,–,–,–
COc1cc2c(c(OC)c1OC)-c1ccc(OC)c(=O)cc1[C@@H](N(C)C=O)CC2,> 100,> 100,> 100,–,> 100,0.0487,> 100,–,–,–,–,–,–,–,–,–,–,–
Cn1cnc([N+](=O)[O-])c1Sc1nnnn1-c1ccccc1,30.5,33.7,19.1,36.3,27.9,29.5,28.6,–,–,–,–,–,–,–,–,–,–,–
N#C/C(=C\c1ccc(C(O)P(=O)(O)O)cc1)C(N)=O (centres undefined),> 100,> 100,> 100,> 100,> 100,> 100,> 100,–,–,–,–,–,–,–,–,–,–,–
C1COCCOCCOCCOCCO1.CC(=O)[CH-]C(C)=O.CC(=O)[CH-]C(C)=O.CC(=O)[CH-]C(C)=O.[V],12.9,22.5,29.6,> 100,76.3,26,23.9,2.96,–,–,4.79,15.1,–,–,37.1,30.6,10.8,–
Cc1ccc(Oc2ccc([N+](=O)[O-])cc2[N+](=O)[O-])c(C)c1,> 100,> 100,–,> 100,> 100,> 100,> 100,–,–,–,–,–,–,–,–,–,–,–
O=C(O)C1CCCCC1c1c2ccc(=O)cc-2oc2cc(O)ccc12 (centres undefined),> 100,41.3,> 100,–,90.8,> 100,> 100,–,–,66.7,–,–,–,> 100,–,–,–,–
NC(CC1=CCC=CC1)C(=O)O (centres undefined),> 100,> 100,> 100,–,> 100,> 100,> 100,–,–,> 100,–,–,–,> 100,–,–,–,–
CSc1ncnc2c1CCN2,> 100,> 100,> 100,–,> 100,> 100,> 100,> 100,–,–,> 100,> 100,–,–,–,> 100,> 100,> 100
